In one data set the target is T1, intestinal GC-C receptor (Homo sapiens, UniProt P25092).
T1 construct: monolayers of T84 cells in 24-well plates; host or cells: T84 human colon carcinoma cells
Briefly: GC-C receptor activity assay (cyclic GMP) in T84 cells. The class given is cell-based. Particulars: chemically synthesized peptides, cyclic GMP by EIA. As to the method: The ability of SEQ ID NO:5, SEQ ID NO:4, SEQ ID NO:3, and SEQ ID NO:6 to activate the intestinal GC-C receptor was assessed in an assay employing the T84 human colon carcinoma cell line (American Type Culture Collection (Bethesda, Md.)). For the assays cells were grown to confluency in 24-well culture plates with a 1:1 mixture of Ham's F12 medium and Dulbecco's modified Eagle's medium (DMEM), supplemented with 5% fetal calf serum and were used at between passages 54 and 60.
Briefly, monolayers of T84 cells in 24-well plates were washed twice with 1 ml/well DMEM, then incubated at 37° C. for 10 min with 0.45 ml DMEM containing 1 mM isobutylmethylxanthine (IBMX), a cyclic nucleotide phosphodiesterase inhibitor, Test peptides (50 μl) were then added and incubated for 30 minutes at 37° C. The media was aspirated and the reaction was then terminated by the addition of ice cold 0.5 ml of 0.1N HCl. The samples were held on ice for 20 minutes and then evaporated to dryness using a heat gun or vacuum centrifugation.

Data set [1] is described as follows: oral bioavailability in mice, radioimmunoassay (RIA) detection. Also noted: species or system CD-1 mice. Particulars: female, CD-1, mouse, in vivo, 8 mg/kg intravenous, read-out: AUCi.v.,(0-4h) (converted). The protocol:
Oral bioavailability was also determined using a radioimmunoassay (RIA) detection method. Female CD-1 mice (Charles River, Wilmington, Mass.) weighing approximately 25g (7-8 weeks old) or female CD rats (Charles River, Wilmington, Mass.) weighing approximately 153 g were included in this study. Monoclonal antibody, 20C1 (Brandwein et al. 1985 Infect Immun. 47:242-246), which recognizes SEQ ID NO:7 and ^125I labeled-SEQ ID NO:7, a labeled tracer, were used in these experiments. The labeled tracer was purified by HPLC using a Waters C-18u Bondapak® column (25 cm) previously equilibrated with 10 mM ammonium acetate pH 5.8. […] Blood was drawn from all dosed animals by retro-orbital eye bleeding at specific intervals and test compound levels were analyzed by radioimmunoassay (RIA). […] Radioactivity was measured in a LS 6500 scintillation counter (Beckman-Coulter). The binding efficiency is defined as the percent radioactivity in the B0 sample compared to the input counts. The percent bound in each sample was calculated by the equation: […]
A standard curve was prepared by plotting % B/B0 as a function of the log SEQ ID NO:3 concentration. […] The area under the curve from T=0 to 4 hours (AUC0-4h) was calculated by the software for both p.o. and i.v. dosed animals. […] Oral Bioavailabilty (F) is calculated using the equation: […]

This is an account of results in patent US20090253634A1, “Methods and Compositions for the Treatment of Gastrointestinal Disorders” (MICROBIA, INC., priority 2005, published 2009).

Molecules are shown by their SMILES. Bridge positions count the residues as written; N and C are the ends. Peptide text beside a SMILES is read from it.

T1 sequence (P25092 24-1073): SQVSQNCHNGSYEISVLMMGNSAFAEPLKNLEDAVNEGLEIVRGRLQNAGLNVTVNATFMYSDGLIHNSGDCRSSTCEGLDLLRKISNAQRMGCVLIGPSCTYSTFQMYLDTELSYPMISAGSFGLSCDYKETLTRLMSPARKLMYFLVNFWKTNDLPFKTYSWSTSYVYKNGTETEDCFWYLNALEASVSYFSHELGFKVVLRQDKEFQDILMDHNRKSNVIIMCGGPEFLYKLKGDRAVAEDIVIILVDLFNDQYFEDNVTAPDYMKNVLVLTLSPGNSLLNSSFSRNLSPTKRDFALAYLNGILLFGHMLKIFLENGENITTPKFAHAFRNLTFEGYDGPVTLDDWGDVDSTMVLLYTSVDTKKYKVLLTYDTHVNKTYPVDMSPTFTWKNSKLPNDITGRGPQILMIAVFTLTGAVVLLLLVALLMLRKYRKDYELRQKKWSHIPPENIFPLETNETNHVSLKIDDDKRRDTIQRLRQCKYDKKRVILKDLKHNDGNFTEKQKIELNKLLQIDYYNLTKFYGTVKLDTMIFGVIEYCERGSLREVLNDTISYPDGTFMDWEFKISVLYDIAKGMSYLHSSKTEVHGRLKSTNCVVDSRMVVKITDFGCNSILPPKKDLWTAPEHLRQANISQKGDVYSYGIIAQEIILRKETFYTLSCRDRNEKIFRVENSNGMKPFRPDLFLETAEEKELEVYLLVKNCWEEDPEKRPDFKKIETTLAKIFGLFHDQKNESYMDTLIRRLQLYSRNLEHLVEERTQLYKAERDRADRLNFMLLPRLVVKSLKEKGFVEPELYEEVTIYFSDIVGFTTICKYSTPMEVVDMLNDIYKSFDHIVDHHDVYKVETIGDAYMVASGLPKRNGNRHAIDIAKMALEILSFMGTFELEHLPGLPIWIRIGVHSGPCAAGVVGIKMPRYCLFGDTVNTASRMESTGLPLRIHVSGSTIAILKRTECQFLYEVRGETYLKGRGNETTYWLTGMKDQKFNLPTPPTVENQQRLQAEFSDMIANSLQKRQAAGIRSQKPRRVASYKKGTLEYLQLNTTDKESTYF

For `C[C@@H]1NC(=O)[C@@H]2CCCN2C(=O)[C@H](CC(N)=O)NC(=O)[C@@H]2CSSC[C@H](N)C(=O)N[C@H]3CSSC[C@H](NC1=O)C(=O)N[C@@H]([C@@H](C)O)C(=O)NCC(=O)N[C@H](C(=O)N[C@@H](Cc1ccc(O)cc1)C(=O)O)CSSC[C@H](NC(=O)[C@H](Cc1ccc(O)cc1)NC(=O)[C@H](CCC(=O)O)NC3=O)C(=O)N2` [SEQ ID NO:3] (H-CCEYCCNPACTGCY-OH; disulfide 1-6, 2-10, 5-13; N-terminus and C-terminus assumed), the “activity in GC-C receptor activity assay” value at intestinal GC-C receptor is recorded as “activity comparable to SEQ ID NO:4”. Besides, the AUC in data set [1] is 27700 ng·h/mL.
